Like-named read-outs stand apart in the source and are kept apart here.
Legend:
MM.1S cells = assay: In vitro cytotoxic potency in MM.1S cell viability assay (CellTiter-Glo); type: cell-based, human; settings: Homo sapiens, MM1.S, 72 h
Procedure: Methods: MM.1S Cells were cultivated in RPMI medium 1640 (IX) supplemented with 10 μg/μL penicillin/streptomycin, 10% heat inactivated FBS, 0.1 mM Sodium Pyruvate, 1×MEM NEAA (ThermoFisher) and 1 mM HEPES. Cells were grown to reach log phase before being exposed to the test compounds.
(§1) Test compounds (Example compounds 1 to 36, 38 to 41 and 45 to 48) and comparative compounds (bendamustine, busulfan, melphalan, chlorambucil and 4-hydroperoxy cyclophosphamide) were dissolved in 100% DMSO and added to a 384 assay plate. Additional DMSO was added to maintain the same final DMSO concentration (0.2%) in all wells. 25 μL cell suspension with a concentration of 100000 cells/mL was added to each well. The cells were cultured in a CO2 incubator at 37° C. for 72 h. Plates were equilibrated to room temperature for 30 minutes before adding 20 μL CellTiter-Glo® 2.0 (Promega) reagent to all wells. The plate was then allowed to stabilize for 20 minutes before recording the luminescence (emission filter 700 nm) in an Envision plate reader.
(§2) All cells were cultivated in RPMI medium 1640 (IX). All media was supplemented with 10 μg/μl penicillin/streptomycin, 10% heat inactivated FBS, 0.1 mM Sodium Pyruvate, 1×MEM NEAA (ThermoFisher) and 1 mM HEPES. The DERL-2 cells had higher FBS (20%) and 40 ng/mL IL-2 was added. hPBMCs were thawed and allowed to acclimatise overnight and then stimulated with 10 μg/mL PHA-M and 40 ng/mL IL-2 for 4 hours before being exposed to test compounds. All cells, except for hPBMCs, were grown to reach log phase before being exposed to the test compounds.
as §1, with “compounds” for “compounds (Example compounds 1 to 36, 38 to 41 and 45 to 48) and comparative compounds (bendamustine, busulfan, melphalan, chlorambucil and 4-hydroperoxy cyclophosphamide)”, “(Em” for “(emission”

U937 = assay: In vitro cytotoxicity, U937 (Histiocytic Lymphoma); type: cell-based; settings: Homo sapiens, U-937, 72 h, read-out: Cytotoxicity IC50, U937
Procedure: as §2
as §1, with “compounds” for “compounds (Example compounds 1 to 36, 38 to 41 and 45 to 48) and comparative compounds (bendamustine, busulfan, melphalan, chlorambucil and 4-hydroperoxy cyclophosphamide)”, “(Em” for “(emission”

RPMI-8226 = assay: In vitro cytotoxicity, RPMI-8226 (Multiple Myeloma, resistant); type: cell-based; settings: Homo sapiens, RPMI-8226, 72 h, read-out: Cytotoxicity IC50, RPMI-8226
Procedure: as §2
as §1, with “compounds” for “compounds (Example compounds 1 to 36, 38 to 41 and 45 to 48) and comparative compounds (bendamustine, busulfan, melphalan, chlorambucil and 4-hydroperoxy cyclophosphamide)”, “(Em” for “(emission”

SK-MM-1 = assay: In vitro cytotoxicity, SK-MM-1 (Plasma Cell Leukemia); type: cell-based; settings: Homo sapiens, 72 h, read-out: Cytotoxicity IC50, SK-MM-1
Procedure: as §2
as §1, with “compounds” for “compounds (Example compounds 1 to 36, 38 to 41 and 45 to 48) and comparative compounds (bendamustine, busulfan, melphalan, chlorambucil and 4-hydroperoxy cyclophosphamide)”, “(Em” for “(emission”

DOHH-2 = assay: In vitro cytotoxicity, DOHH-2 (B Cell Lymphoma); type: cell-based; settings: Homo sapiens, DOHH-2, 72 h, read-out: Cytotoxicity IC50, DOHH-2
Procedure: as §2
as §1, with “compounds” for “compounds (Example compounds 1 to 36, 38 to 41 and 45 to 48) and comparative compounds (bendamustine, busulfan, melphalan, chlorambucil and 4-hydroperoxy cyclophosphamide)”, “(Em” for “(emission”

HG-3 = assay: In vitro cytotoxicity, HG-3 (Chronic Lymphocytic Leukemia); type: cell-based; settings: Homo sapiens, HG-3, 72 h, read-out: Cytotoxicity IC50, HG-3
Procedure: as §2
as §1, with “compounds” for “compounds (Example compounds 1 to 36, 38 to 41 and 45 to 48) and comparative compounds (bendamustine, busulfan, melphalan, chlorambucil and 4-hydroperoxy cyclophosphamide)”, “(Em” for “(emission”

SC-1 = assay: In vitro cytotoxicity, SC-1 (B cell Lymphoma); type: cell-based; settings: Homo sapiens, SC-1, 72 h, read-out: Cytotoxicity IC50, SC-1
Procedure: as §2
as §1, with “compounds” for “compounds (Example compounds 1 to 36, 38 to 41 and 45 to 48) and comparative compounds (bendamustine, busulfan, melphalan, chlorambucil and 4-hydroperoxy cyclophosphamide)”, “(Em” for “(emission”

SU-DHL-8 = assay: In vitro cytotoxicity, SU-DHL-8 (B-cell non-Hodgkin Lymphoma); type: cell-based; settings: Homo sapiens, SU-DHL-8, 72 h, read-out: Cytotoxicity IC50, SU-DHL-8
Procedure: as §2
as §1, with “compounds” for “compounds (Example compounds 1 to 36, 38 to 41 and 45 to 48) and comparative compounds (bendamustine, busulfan, melphalan, chlorambucil and 4-hydroperoxy cyclophosphamide)”, “(Em” for “(emission”

Toledo = assay: In vitro cytotoxicity, Toledo (Diffuse Large B Cell Lymphoma); type: cell-based; settings: Homo sapiens, 72 h, read-out: Cytotoxicity IC50, Toledo
Procedure: as §2
as §1, with “compounds” for “compounds (Example compounds 1 to 36, 38 to 41 and 45 to 48) and comparative compounds (bendamustine, busulfan, melphalan, chlorambucil and 4-hydroperoxy cyclophosphamide)”, “(Em” for “(emission”

DERL-2 = assay: In vitro cytotoxicity, DERL-2 (T cell Lymphoma); type: cell-based; settings: Homo sapiens, 72 h, read-out: Cytotoxicity IC50, DERL-2
Procedure: as §2
as §1, with “compounds” for “compounds (Example compounds 1 to 36, 38 to 41 and 45 to 48) and comparative compounds (bendamustine, busulfan, melphalan, chlorambucil and 4-hydroperoxy cyclophosphamide)”, “(Em” for “(emission”

SUP-T1 = assay: In vitro cytotoxicity, SUP-T1 (T cell Lymphoma); type: cell-based; settings: Homo sapiens, SUP-T1, 72 h, read-out: Cytotoxicity IC50, SUP-T1
Procedure: as §2
as §1, with “compounds” for “compounds (Example compounds 1 to 36, 38 to 41 and 45 to 48) and comparative compounds (bendamustine, busulfan, melphalan, chlorambucil and 4-hydroperoxy cyclophosphamide)”, “(Em” for “(emission”

[1] = In vitro cytotoxicity, human peripheral blood mononuclear cells; type: cell-based; settings: CellTiter-Glo 2.0, stimulated with PHA-M and IL-2, read-out: Cytotoxicity IC50, hPBMC
Procedure: as §2
as §1, with “compounds” for “compounds (Example compounds 1 to 36, 38 to 41 and 45 to 48) and comparative compounds (bendamustine, busulfan, melphalan, chlorambucil and 4-hydroperoxy cyclophosphamide)”, “(Em” for “(emission”

[2] = system: DNA prepared from MM.1S cells (nuclear HPRT and mitochondrial DNA); assay: Direct DNA damage, PCR amplification of treated DNA (HPRT and mtDNA primers); type: biochemical, human; settings: 0.25 μM compound, 30 minutes, 37° C., 1 μg DNA
Procedure: Method: DNA was prepared from MM.1S cells by QIAGEN genomic tip 20/G according to protocol described in Furda et al., Methods Mol Biol, 2012. 1 μg of DNA was treated with 0.25 μM compound for 30 minutes at 37° C. DMSO was used as control treatment. 20 ng of the treated DNA was PCR amplified using Phusion Hot Start II High Fidelity PCR Master Mix (Thermo Scientific) and primers directed to either HPRT or primers directed to mitochondrial DNA (mtDNA) was used, generating 10.4 or 8.9 kb fragments, respectively. The PCR reactions were separated on a 1% agarose gel and visualized by ChemiDoc™ MP Imaging System (BioRad). Example compounds 1, 2 and 38 were investigated, as were compounds 18 and 20, which are metabolites of compound 1. They were compared with bendamustine, melphalan and DMSO control. The results for compounds 1, 2, 18 and 20 with the HPRT primers are shown in FIG. 4(A); the results with the mtDNA primers are shown in FIG. 4(B).

[3] = read-out: Cytotoxicity IC50, MM.1S

| SMILES | IC50 (MM.1S cells; [3]) [nM] | IC50 (MM.1S cells; read-out: MM.1S IC50) [nM] | IC50 (U937) [nM] | IC50 (RPMI-8226) [nM] | IC50 (SK-MM-1) [nM] | IC50 (DOHH-2) [nM] | IC50 (HG-3) [nM] | IC50 (SC-1) [nM] | IC50 (SU-DHL-8) [nM] | IC50 (Toledo) [nM] | IC50 (DERL-2) [nM] | IC50 (SUP-T1) [nM] | IC50 at 72 h [1] [nM] | DNA damage on nuclear and mitochondrial DNA (PCR band) [2] |
| --- | --- | --- | --- | --- | --- | --- | --- | --- | --- | --- | --- | --- | --- | --- |
| CCOC(=O)[C@H](Cc1ccc(F)cc1)NC(=O)[C@@H](N)CCc1nc2cc(N(CCCl)CCCl)ccc2n1C [Example 2, Ethyl (2S)-2-[[(2S)-2-amino-4-[5-[bis(2-chloroethyl)amino]-1-methyl-benzimidazol-2-yl]butanoyl]amino]-3-(4-fluorophenyl)propanoate] | 7.8 | 7.8 | 14.2 | 41.5 | 38.3 | 5.3 | 25.7 | 21 | 20.4 | 6.6 | 7.8 | 17.8 | 7.5 | strong DNA damaging effect |
| CCOC(=O)[C@H](Cc1nc2cc(N(CCCl)CCCl)ccc2n1C)NC(=O)[C@@H](N)CC(C)C [Example 10, Ethyl (2S)-2-[[(2S)-2-amino-4-methyl-pentanoyl]amino]-3-[5-[bis(2-chloroethyl)amino]-1-methyl-benzimidazol-2-yl]propanoate] | 19.2 | 19.2 | 19.4 | 335 | 62.4 | 63.9 | 71.3 | 169 | 22.1 | 8.5 | 22.6 | 35.6 | 26.4 | – |
